Measured values from patent US5756505A, “N-acylpiperazine derivative, antibacterial drug and anti-ulcer drug” (Shiseido Co., Ltd., priority 1995, dated 1998).
Like-named read-outs stand apart in the source and are kept apart here.

Experiments:
[1] = system: gastric corpus mucosa cells; assay: MTT: Cell Damaging and Protecting Effect Test; type: cell-based, rabbit (male Japanese White); details: final concentration 10^-4 M, 4 hours; smaller value is better; 100 µM
Description: (§1) MTT: Cell Damaging and Protecting Effect Test
(§2) It is confirmed that there is no toxicity in cell level. Those having a toxicity in cell level are inappropriate as an anti-ulcer drug.
(§3) A male Japanese White rabbit (2.5 to 3 kg) was anesthetized to death by Nembutal™ and, immediately thereafter, its stomach was removed. The greater curvature of the stomach was incised so as to remove the stomach contents therefrom. After the mucosal surface was washed with HBSS (Hanks' Balanced Salt Solution), the stomach in ice-cooled HBSS was transferred to a laboratory. Then, after the pyloric antrum was removed, the gastric corpus mucosa was separated by a spatula and then minced into 2 to 3 mm^3 pieces in BME (Basal Medium Eagle). Thereafter, these pieces were shaken at 120 to 130 cycles/minute for 15 minutes at 37° C. in BME 60ml containig 280 U/ml of dispase and 30 to 50 U/ml of collagenase. Here, the concentration of collagenase was appropriately changed for each lot in view of the state of cells. The pieces were washed twice with EBSS (Earle's Balanced Salt Solution) containing 1 mM of EDTA and then shaken in MEM (Minimum Essential Medium) containing 1 mM of EDTA at 37° C. for 5 minutes. Subsequently, they were shaken in the dispase and collagenase having the same concentrations as those mentioned above for 15 minutes so as to remove the supernatant and then further shaken at 37° C. for 50 to 60 minutes at 120 to 130 cycles/minute. Then, after being washed twice with HBSS, Ham F12 containing 2% of Ultrocer G™ was used to attain the concentration of 1×10^6 cells/ml. Thus formed suspension was dispensed in each well of a 96-well plate by 200 μl. The plate was incubated in the atmosphere composed of 5% CO2 and 95% air at 37° C. for three days so as to attain a confluent state and then subjected to MTT assay.
(§4) The sample compound was dissolved in DMSO so as to attain a concentration of 10^-2 M and then diluted with HBSS containing 2% of Ultrocer G™ so as to attain a final concentration of 10^-4 M. To each group, which 8 wells were used for, 10 μl of MTT reagent were added immediately after 100 μl of the medium in each well were exchanged for same volume of the resulting solution of the sample compound. After being incubated in an atmosphere composed of 5% CO2 and 95% air at 37° C. for 4 hours, thus formed solution was centrifuged and then its supernatant was discarded. Subsequently, 100 μl of 100% ethanol were added to the residue so as to dissolve MTT formazan. Then, the absorbance (OD: 570 to 630) was measured by a microplate reader. This method utilizes a phenomenon in which MTT is changed to MTT formazan only by mitochondria of living cells so as to change color.
(§5) The cell damaging or cell protecting effect of the sample compound at the final concentration of 10^-4 M was expressed as cell damaging rate (%) as follows:
(§6) cell damaging rate (%)=[1-(absorbance in sample group/absorbance in control group)]×100
(§7) Accordingly, the smaller value is better in the cell damaging rate.

gastric mucosa = assay: PD: Gastric Mucosal Integrity Test; type: in vivo, rat (male Crj:SD); details: rat, 100 mg/kg into ex vivo chamber, 60 minutes
Procedure: PD: Gastric Mucosal Integrity Test
In this case, since the sample compound has a necrotizing effect, it is inappropriate as an anti-ulcer medicament.
Therefore, the gastric mucosal potential difference (PD), which reflects the integrity of the gastric mucosa, is measured so as to confirm that the sample compound has no damasing effect on gastric mucosa, which is toxicity at gastric mucosal level.
Male Crj:SD rats (7 to 8-week-old) was fasted overnight, but allowed free access to water, and then, under urethane anesthesia (1.25 g/kg, i.p.), fixed to a cork board on its back. The abdomen of each rat was incised, and a small incision was made in the forestomach. Then, the inside of the stomach was washed with physiological saline heated at 37° C. From the forestomach, along the greater curvature thereof, the stomach was incised without damaging blood vessels. After the height of the cork board was adjusted on a jack, the stomach was mounted on ex vivo chamber. The area of the gastric mucosa exposed to the inside of this chamber was 2.5 cm^2. The inside of the chamber was perfused with physiological saline warmed at 37° C. by micro tube pump. By using an agar bridge containing 3M KCl, the potential difference between the chamber and the abdominal cavity was measured by a PD meter. Here, the rectal temperature was measured to control the body temperature during the experiment. After the PD was sufficiently stabilized, the perfusate was stopped and then 100 mg/10 ml/kg of the sample compound dissolved or suspended in an aqueous solution of 0.5% sodium carboxymethyl cellulose or 0.05% Tween 80 were administered into the chamber, while PD was recorded for 60 minutes. To a control, the vehicle was administered.
The change in PD during 60 minutes after the administration of 100 mg/kg of the sample compound was collectively studied and, with reference to the positive control, classified into 5 levels as follows:
5: Same as the control with no recognizable damage at all.
3: Though a weak decrease in PD and a possibility of a weak mucosal damage is recognized, there is no substantial problem.
2: Medium degree of decrease in PD is found and a mucosal damage is recognized.
1: Heavy degree of decrease in PD is found and a remarkable mucosal damage is recognized.

[2] = MTT: Cell Damaging and Protecting Effect Test; type: cell-based, rabbit (male Japanese White); details: rabbit, gastric mucosal cells
Description: as §1, §2, §3, §4, §5, §6, §7

acid secretion = assay: VOL, TAO: Acid Secretion Inhibition Test In Vivo; design: species or system rat (male Crj:Donryu); details: rat, 100 mg/kg oral, histamine-stimulated, pylorus ligated
Procedure: VOL, TAO: Acid Secretion Inhibition Test In Vivo
Inhibitory effect on acid secretion in vivo is confirmed.
Male Crj:Donryu rats (7-week-old) were fasted overnight but allowed free access to water. In each group, 8 to 10 of these rats were used under urethane anesthesia (1.25 g/kg). The sample compound dissolved or suspended in an aqueous solution of 0.5% sodium carboxymethylcellulose or 0.05% Tween 80 was orally administered (100 mg/10 ml/kg). 30 minutes later, the abdomen of each was incised and the pylorus was ligated. 30 minutes after the ligation, 30 mg/kg of histamine dissolved in physiological saline were subcutaneously administered and, 3 hours thereafter, the rat was sacrificed with carbon dioxide. Immediately thereafter, each stomach was removed and the gastric contents were collected and each volume was determined. The total acid output was determined by titration of the gastric juice with 0.1N NaOH.
With respect to the gastric juice volume (VOL) and the total acid output (TAO), the effects obtained when 100 mg/kg of the sample compound had been administered were expressed as their respective inhibitory rates (%) as follows:
each inhibitory rate (%)=[1-(value in sample group/value in control group)]×100

[3] = final concentration 10^-4 M, 4 hours, smaller value is better, read-out: MTT: cell damaging rate

Compound | MTT: cell damaging rate [1] [%] | PD: change in gastric mucosal potential difference, level (gastric mucosa) | cytotoxicity at 4 h, 100 µM [2, 3] [%] | TAO: total acid output inhibitory rate (acid secretion) [%] | VOL: gastric juice volume inhibitory rate (acid secretion) [%] | cytotoxicity at 4 h, 100 µM ([2]; MTT: cell damaging rate) [%]
CC(C)Cc1cc(C(=O)N2CCN(CC(C)C)CC2)ccc1OCc1ccccc1 [Example 16, 1-(4-benzyloxy-3-isobutylbenzoyl)-4-isobutylpiperazine] |  | 5 | -98 |  |  | 
CC(C)Cc1cc(C(=O)N2CCN(C(=O)C(C)C)CC2)ccc1OCc1ccc(F)cc1 [Example 6, 1-[4-(4-fluorobenzyloxy)-3-isobutylbenzoyl]-4-isobutyrylpiperazine] |  |  | -29 |  |  | 
CC(C)CN1CCN(C(=O)c2ccc(OCc3ccc(F)cc3)cc2)CC1 [Example 5, 1-[4-(4-fluorobenzyloxy)benzoyl]-4-isobutylpiperazine] | -84 |  |  |  |  | 
CC(C)Cc1cc(C(=O)N2CCN(CC(C)C)CC2)ccc1OCc1ccc([N+](=O)[O-])cc1.Cl [Example 13, 1-isobutyl-4-[3-isobutyl-4-(4-nitrobenzyloxy)benzoyl]piperazine hydrochloride] |  | 2 | -66 | 18 | 3 | 
CC(C)Cc1cc(C(=O)N2CCN(CC(C)C)CC2)ccc1OCc1ccc(F)c(F)c1.Cl [Example 23, 1-[4-(3,4-difluorobenzyloxy)-3-isobutylbenzoyl]-4-isobutylpiperazine hydrochloride] |  |  | 28 | 9 | -9 | 
CC(C)Cc1cc(C(=O)N2CCN(CCO)CC2)ccc1OCc1ccc(F)cc1 [Example 9, 1-[4-(4-fluorobenzyloxy)-3-isobutylbenzoyl]-4-(2-hydroxyethyl)piperazine] |  | 2 | 26 |  |  | 
CC(C)Cc1cc(C(=O)N2CCN(CC(C)C)CC2)ccc1OCc1ccc(Cl)cc1 [Example 17, 1-[4-(4-chlorobenzyloxy)-3-isobutylbenzoyl]-4-isobutylpiperazine] |  | 4 | -18 |  |  | 
Cc1cccc(COc2ccc(C(=O)N3CCN(CC(C)C)CC3)cc2CC(C)C)c1F.Cl [Example 12, 1-[4-(2-fluoro-3-methylbenzyloxy)-3-isobutylbenzoyl]-4-isobutylpiperazine hydrochloride] |  | 2 | -15 |  |  | 
CC(C)Cc1cc(CC(=O)N2CCN(CC(C)C)CC2)ccc1OCc1ccccc1 [Example 15, 1-(4-benzyloxy-3-isobutylphenylacetyl)-4-isobutylpiperazine] |  |  |  |  |  | -55
CC(C)CN1CCN(C(=O)c2ccc(OCc3ccccc3)cc2)CC1 [Example 3, 1-(4-benzyloxybenzoyl)-4-isobutylpiperazine] |  | 5 | -16 |  |  | 
CC(C)CN1CCN(C(=O)c2ccc(OCc3ccc(F)cc3)c([N+](=O)[O-])c2)CC1.Cl [Example 8, 1-[4-(4-fluorobenzyloxy)-3-nitrobenzoyl]-4-isobutylpiperazine hydrochloride] |  | 2 | -65 | 16 | 8 | 
C=C(C)Cc1cc(C(=O)N2CCN(CC(C)C)CC2)ccc1OCc1ccc(F)cc1.Cl [Example 4, 1-[4-(4-fluorobenzyloxy)-3-methallylbenzoyl]-4-isobutylpiperazine hydrochloride] |  |  | -67 |  |  | 
COc1ccc(COc2ccc(C(=O)N3CCN(CC(C)C)CC3)cc2CC(C)C)cc1 [Example 14, 1-isobutyl-4-[3-isobutyl-4-(4-methoxybenzyloxy)benzoyl]piperazine] |  |  | 11 |  |  | 
CC(C)CN1CCN(C(=O)c2ccc(OCc3ccc(F)cc3)cc2)CC1.Cl [Example 2, 1-[4-(4-fluorobenzyloxy)benzoyl]-4-isobutylpiperazine hydrochloride] | -6 | 2 |  |  |  | 

Continued, in another order:

MTT: cell damaging rate [1] [%] | PD: change in gastric mucosal potential difference, level (gastric mucosa) | Compound | cytotoxicity at 4 h, 100 µM [2, 3] [%] | TAO: total acid output inhibitory rate (acid secretion) [%] | VOL: gastric juice volume inhibitory rate (acid secretion) [%] | cytotoxicity at 4 h, 100 µM ([2]; MTT: cell damaging rate) [%]
29 |  | CC(C)Cc1cc(C(=O)N2CCN(CC(C)C)CC2)ccc1OCc1ccc(F)c(F)c1 [Example 26, 1-[4-(3,4-difluorobenzyloxy)-3-isobutylbenzoyl]-4-isobutylpiperazine] |  |  |  | 
-33 | 3 | CC(C)Cc1cc(C(=O)N2CCN(CC(C)C)CC2)ccc1OCc1ccccc1F [Example 18, 1-[4-(2-fluorobenzyloxy)-3-isobutylbenzoyl]-4-isobutylpiperazine] |  |  |  | 
-28 |  | CC(C)Cc1cc(C(=O)N2CCN(CC(C)C)CC2)ccc1OCc1ccc(F)cc1.O=C(O)C(=O)O [Example 25, 1-[4-(4-fluorobenzyloxy)-3-isobutylbenzoyl]-4-isobutylpiperazine oxalate] |  | 47 | 19 | 
-55 | 2 | CC(C)Cc1cc(C(=O)N2CCN(CC(C)C)CC2)ccc1OCc1ccccc1F.Cl [Example 19, 1-[4-(2-fluorobenzyloxy)-3-isobutylbenzoyl]-4-isobutylpiperazine hydrochloride] |  | 42 | 6 | 
-119 |  | CC(C)Cc1cc(C(=O)N2CCN(CC(C)C)CC2)ccc1OCc1ccc(F)cc1F [Example 27, 1-[4-(2,4-difluorobenzyloxy)-3-isobutylbenzoyl]-4-isobutylpiperazine] |  |  |  | 
 | 2 | CC(C)Cc1cc(CN2CCN(CC(C)C)CC2)ccc1OCc1ccc(F)cc1.Cl.Cl [Example 20, 1-[4-(4-fluorobenzyloxy)-3-isobutylbenzyl]-4-isobutylpiperazine dihydrochloride] | 45 | 43 | 12 | 
